In patent publication US20100092539A1, “Fluorinated GHRH Antagonists” (priority 2008, published 2010):

Test system: PC-3 human hormone-independent prostate cancer
Experiment: Effect of treatment with GH-RH antagonists on PC-3 human prostate cancer xenografts in nude mice
Format: in vivo
Conditions: PC-3 xenografts s.c. in male nude mice, 2 ug/day s.c., single daily injections for 28
Method: Male nude mice were implanted s.c. with 3 mm3 pieces of PC-3 human hormone-independent prostate cancer tissue on both flanks. When tumors reached a volume of approximately 50 mm3, the mice were divided into 14 experimental groups with 8 to 10 animals in each group and received single daily injections for 28 as follows: 1. Control (vehicle solution); 2. P-12211 (2 μg/day s.c.); 3. P-12307 (2 μg/day s.c.); 4. P-12317 (2 μg/day s.c.); 5. P-12408 (2 μg/day s.c.); 6. P-12409 (2 μg/day s.c.); 7. P-12457 (2 μg/day s.c.); 8. P-12473 (2 μg/day s.c.); 9. P-12479 (2 μg/day s.c.); 10. P-12600 (2 μg/day s.c.); 11. P-12601 (2 μg/day s.c.); 12. P-12602 (2 μg/day s.c.); 13. P-12603 (2 μg/day s.c.); and 14. P-12610 (2 μg/day s.c.).
Effect of Treatment with GH-RH Antagonists on PC-3 Human Prostate Cancer Xenografts in Nude Mice

[PhAc^0-Tyr^1, D-Arg^2, Cpa^6, Ala^8, Har^9, Fpa5^10, His^11, Orn^12, Abu^15, His^20, Orn^21, Nle^27, D-Arg^28, Har^29, Ada^30]hGH-RH(1-30)NH2 [Peptide P-12610]
Tumor Growth after 4 weeks (%) (control 2137.62): 474.98%
Tumor growth inhibition after 4 weeks (%) (versus control): 77.78%
